Assay [1] has as its system Chenopodium spp., Papaver spp., Polygonum spp., Veronica spp. or Viola spp. The experiment in a line: Post-emergence effect on weeds (greenhouse pot test, visual scoring). It counts as in vivo, monocotyledonous and dicotyledonous weeds. The note with it: treated at three-leaf stage; visual scoring after about 3 to 4 weeks; application rate of 0.5 kg and less of active substance per hectare.

Assay [2] has as its system Cyperus spp., Echinochloa spp., Digitaria spp., Sagitaria spp. and Scirpus spp. The experiment in a line: Action on harmful plants in rice (paddy rice conditions, visual scoring). It counts as in vivo, typical rice weeds (gramineous and broad-leaved). The note with it: applied into the dammed water, visual scoring about three weeks after application. The method, boiled down:
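Under paddy conditions with 2-3 cm dammed water, transplanted and sown rice plus weeds were treated at three-leaf stage (E. crus-galli at 1.5 leaves). Pots stayed in greenhouse under optimum growth conditions for the test period, with visual assessment of damage.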

On to `CC(F)c1nc(N)nc(NCc2ccc(C3CC3)cc2)n1` (centres unmarked) [Product P21.1604], for which the “herbicidal activity post-emergence against harmful plants” value (shortened to “herbicidal activity post-emergence”) in assay [1] is “very good herbicidal activity”. In assay [2], the “herbicidal activity against harmful plants which are typical for rice crops” value (from here on “herbicidal activity … for rice crops”) is “very good herbicidal activity”.

In the case of `CC(F)c1nc(N)nc(NC(C)c2ccc(F)c(C(F)=C(F)F)c2)n1` (centres unmarked) [Product P22.5], the “herbicidal activity post-emergence” value in assay [1] is “very good herbicidal activity”. Also, the “herbicidal activity … for rice crops” value in assay [2] is “very good herbicidal activity”.

On to `C#Cc1cc(C(C)Nc2nc(N)nc(C(C)F)n2)ccc1F` (centres unmarked) [Product P22.309], for which the “herbicidal activity post-emergence” value in assay [1] was “very good herbicidal activity”. For the same molecule, in assay [2], the “herbicidal activity … for rice crops” value is on record as “very good herbicidal activity”.

On to `C#Cc1ccc(C(C)Nc2nc(N)nc(C(C)F)n2)cc1C` (centres unmarked) [Product P22.335], for which the “herbicidal activity post-emergence” value in assay [1] is given as “very good herbicidal activity”. In addition, the “herbicidal activity … for rice crops” value in assay [2] is listed as “very good herbicidal activity”.

On to `C#Cc1c(C)cc(C(C)Nc2nc(N)nc(C(C)F)n2)cc1C` (centres unmarked) [Product P22.348], for which, in assay [1], the “herbicidal activity post-emergence” value is listed as “very good herbicidal activity”. Besides, the “herbicidal activity … for rice crops” value in assay [2] is listed as “very good herbicidal activity”.

For `C#Cc1c(F)cc(C(C)Nc2nc(N)nc(C(C)F)n2)cc1F` (centres unmarked) [Product P22.352], the “herbicidal activity post-emergence” value in assay [1] is “very good herbicidal activity”. In assay [2], the “herbicidal activity … for rice crops” value is reported as “very good herbicidal activity”.

Consider `C#Cc1cc(C#C)cc(C(C)Nc2nc(N)nc(C(C)F)n2)c1` (centres unmarked) [Product P22.369], for which the “herbicidal activity post-emergence” value in assay [1] is “very good herbicidal activity”. For the same molecule, the “herbicidal activity … for rice crops” value in assay [2] is on record as “very good herbicidal activity”.

Regarding `CC#Cc1cc(C(C)Nc2nc(N)nc(C(C)F)n2)ccc1F` (centres unmarked) [Product P22.384], the “herbicidal activity post-emergence” value in assay [1] is “very good herbicidal activity”. Besides, in assay [2], the “herbicidal activity … for rice crops” value is recorded as “very good herbicidal activity”.

`CC#Cc1c(F)cc(C(C)Nc2nc(N)nc(C(C)F)n2)cc1F` (centres unmarked) [Product P22.428]: in assay [1], the “herbicidal activity post-emergence” value is recorded as “very good herbicidal activity”. Moreover, in assay [2], the “herbicidal activity … for rice crops” value is on record as “very good herbicidal activity”.

For the molecule `C=C=Cc1c(F)cc(C(C)Nc2nc(N)nc(C(C)F)n2)cc1F` (centres unmarked) [Product P22.656], the “herbicidal activity post-emergence” value in assay [1] was “very good herbicidal activity”. Besides, in assay [2], the “herbicidal activity … for rice crops” value is recorded as “very good herbicidal activity”.

With `CCCCC#Cc1cc(C(C)Nc2nc(N)nc(C(C)F)n2)ccc1F` (centres unmarked) [Product P22.688], the “herbicidal activity post-emergence” value in assay [1] is “very good herbicidal activity”. The “herbicidal activity … for rice crops” value in assay [2] is “very good herbicidal activity”.

With `CC(F)C#Cc1cc(C(C)Nc2nc(N)nc(C(C)F)n2)ccc1F` (centres unmarked) [Product P22.764], the “herbicidal activity post-emergence” value in assay [1] is reported as “very good herbicidal activity”. For the same molecule, the “herbicidal activity … for rice crops” value in assay [2] is “very good herbicidal activity”.

`CC(O)C#Cc1cc(C(C)Nc2nc(N)nc(C(C)F)n2)ccc1F` (centres unmarked) [Product P22.840]: in assay [1], the “herbicidal activity post-emergence” value is reported as “very good herbicidal activity”. Besides, the “herbicidal activity … for rice crops” value in assay [2] is on record as “very good herbicidal activity”.

With `CC(F)c1nc(N)nc(NC(C)c2ccc(F)c(C3CC3)c2)n1` (centres unmarked) [Product P22.916], the “herbicidal activity post-emergence” value in assay [1] is “very good herbicidal activity”. In assay [2], the “herbicidal activity … for rice crops” value is reported as “very good herbicidal activity”.

As to `CC(F)c1nc(N)nc(NC(C)c2cccc(C(F)=C(F)F)c2)n1` (centres unmarked) [Product P22.1567], in assay [1], the “herbicidal activity post-emergence” value is given as “very good herbicidal activity”. Further, the “herbicidal activity … for rice crops” value in assay [2] is “very good herbicidal activity”.

Consider `CC(F)c1nc(N)nc(NC(C)c2ccc(C(F)=C(F)F)cc2)n1` (centres unmarked) [Product P22.1568], for which the “herbicidal activity post-emergence” value in assay [1] is recorded as “very good herbicidal activity”. Besides, the “herbicidal activity … for rice crops” value in assay [2] is “very good herbicidal activity”.

Consider `C#Cc1cccc(C(C)Nc2nc(N)nc(C(C)F)n2)c1` (centres unmarked) [Product P22.1579], for which, in assay [1], the “herbicidal activity post-emergence” value is “very good herbicidal activity”. Further, in assay [2], the “herbicidal activity … for rice crops” value is on record as “very good herbicidal activity”.

`C#Cc1ccc(C(C)Nc2nc(N)nc(C(C)F)n2)cc1` (centres unmarked) [Product P22.1580]: the “herbicidal activity post-emergence” value in assay [1] was “very good herbicidal activity”. Besides, the “herbicidal activity … for rice crops” value in assay [2] is “very good herbicidal activity”.

Take `CC#Cc1cccc(C(C)Nc2nc(N)nc(C(C)F)n2)c1` (centres unmarked) [Product P22.1582]: in assay [1], the “herbicidal activity post-emergence” value is listed as “very good herbicidal activity”. Besides, the “herbicidal activity … for rice crops” value in assay [2] is on record as “very good herbicidal activity”.

`CC#Cc1ccc(C(C)Nc2nc(N)nc(C(C)F)n2)cc1` (centres unmarked) [Product P22.1583]: the “herbicidal activity post-emergence” value in assay [1] is reported as “very good herbicidal activity”. Further, in assay [2], the “herbicidal activity … for rice crops” value is recorded as “very good herbicidal activity”.

With `CCCCC#Cc1ccc(C(C)Nc2nc(N)nc(C(C)F)n2)cc1` (centres unmarked) [Product P22.1595], in assay [1], the “herbicidal activity post-emergence” value was “very good herbicidal activity”. Further, the “herbicidal activity … for rice crops” value in assay [2] was “very good herbicidal activity”.

As for `CC(F)C#Cc1cccc(C(C)Nc2nc(N)nc(C(C)F)n2)c1` (centres unmarked) [Product P22.1597], in assay [1], the “herbicidal activity post-emergence” value is “very good herbicidal activity”. In addition, the “herbicidal activity … for rice crops” value in assay [2] was “very good herbicidal activity”.

Regarding `CC(F)C#Cc1ccc(C(C)Nc2nc(N)nc(C(C)F)n2)cc1` (centres unmarked) [Product P22.1598], the “herbicidal activity post-emergence” value in assay [1] was “very good herbicidal activity”. Further, the “herbicidal activity … for rice crops” value in assay [2] was “very good herbicidal activity”.

Turning to `CC(O)C#Cc1cccc(C(C)Nc2nc(N)nc(C(C)F)n2)c1` (centres unmarked) [Product P22.1600], the “herbicidal activity post-emergence” value in assay [1] was “very good herbicidal activity”. Also, in assay [2], the “herbicidal activity … for rice crops” value is “very good herbicidal activity”.

As to `CC(O)C#Cc1ccc(C(C)Nc2nc(N)nc(C(C)F)n2)cc1` (centres unmarked) [Product P22.1601], in assay [1], the “herbicidal activity post-emergence” value is reported as “very good herbicidal activity”. Further, the “herbicidal activity … for rice crops” value in assay [2] was “very good herbicidal activity”.

As to `CC(F)c1nc(N)nc(NC(C)c2cccc(C3CC3)c2)n1` (centres unmarked) [Product P22.1603], in assay [1], the “herbicidal activity post-emergence” value is given as “very good herbicidal activity”. The “herbicidal activity … for rice crops” value in assay [2] is “very good herbicidal activity”.

`CC(F)c1nc(N)nc(NC(C)c2ccc(C3CC3)cc2)n1` (centres unmarked) [Product P22.1604]: in assay [1], the “herbicidal activity post-emergence” value was “very good herbicidal activity”. Further, the “herbicidal activity … for rice crops” value in assay [2] is on record as “very good herbicidal activity”.

`C#Cc1ccc(C(C)Nc2nc(N)nc(C(C)F)n2)cc1F` (centres unmarked) [Product P22.1620]: the “herbicidal activity post-emergence” value in assay [1] is reported as “very good herbicidal activity”. Moreover, the “herbicidal activity … for rice crops” value in assay [2] was “very good herbicidal activity”.

For `CC(F)c1nc(N)nc(NC(c2cccc(C(F)=C(F)F)c2)C2CC2)n1` (centres unmarked) [Product P24.1567], the “herbicidal activity post-emergence” value in assay [1] was “very good herbicidal activity”. In addition, the “herbicidal activity … for rice crops” value in assay [2] is recorded as “very good herbicidal activity”.

`CC(F)c1nc(N)nc(NC(c2ccc(C(F)=C(F)F)cc2)C2CC2)n1` (centres unmarked) [Product P24.1568]: the “herbicidal activity post-emergence” value in assay [1] is given as “very good herbicidal activity”. Besides, the “herbicidal activity … for rice crops” value in assay [2] was “very good herbicidal activity”.

Consider `C#Cc1cccc(C(Nc2nc(N)nc(C(C)F)n2)C2CC2)c1` (centres unmarked) [Product P24.1579], for which the “herbicidal activity post-emergence” value in assay [1] is “very good herbicidal activity”. In addition, in assay [2], the “herbicidal activity … for rice crops” value was “very good herbicidal activity”.

On to `C#Cc1ccc(C(Nc2nc(N)nc(C(C)F)n2)C2CC2)cc1` (centres unmarked) [Product P24.1580], for which the “herbicidal activity post-emergence” value in assay [1] is recorded as “very good herbicidal activity”. In assay [2], the “herbicidal activity … for rice crops” value is given as “very good herbicidal activity”.

For the molecule `CC#Cc1cccc(C(Nc2nc(N)nc(C(C)F)n2)C2CC2)c1` (centres unmarked) [Product P24.1582], the “herbicidal activity post-emergence” value in assay [1] is recorded as “very good herbicidal activity”. In assay [2], the “herbicidal activity … for rice crops” value is given as “very good herbicidal activity”.

For `CC#Cc1ccc(C(Nc2nc(N)nc(C(C)F)n2)C2CC2)cc1` (centres unmarked) [Product P24.1583], the “herbicidal activity post-emergence” value in assay [1] is “very good herbicidal activity”. The “herbicidal activity … for rice crops” value in assay [2] is “very good herbicidal activity”.

In the case of `CC(F)c1nc(N)nc(NC(c2cccc(C3CC3)c2)C2CC2)n1` (centres unmarked) [Product P24.1603], the “herbicidal activity post-emergence” value in assay [1] is reported as “very good herbicidal activity”. In addition, the “herbicidal activity … for rice crops” value in assay [2] was “very good herbicidal activity”.

For the molecule `CC(F)c1nc(N)nc(NC(c2ccc(C3CC3)cc2)C2CC2)n1` (centres unmarked) [Product P24.1604], in assay [1], the “herbicidal activity post-emergence” value is “very good herbicidal activity”. In addition, the “herbicidal activity … for rice crops” value in assay [2] is “very good herbicidal activity”.

Take `CCC(F)c1nc(N)nc(NCc2ccc(F)c(C(F)=C(F)F)c2)n1` (centres unmarked) [Product P26.5]: the “herbicidal activity post-emergence” value in assay [1] is given as “very good herbicidal activity”. Further, the “herbicidal activity … for rice crops” value in assay [2] was “very good herbicidal activity”.

For the origin of these results see patent publication US20030224942A1, “Alkylamino-1,3,5-triazines, processes for their preparation and their use as herbicides and plant growth regulators” (priority 2001, published 2003).
